Earlier results as cited in PubChem BioAssay AID1259409 (Chemical Carcinogenesis Research Information System (CCRIS), 2018).

System: rodent chemically induced tumor inhibition, incidence and multiplicity
Experiment: CCRIS tumor inhibitor studies
Settings: 937-40-6, Dose [Inhibitor]: 0, Route [Inhibitor]: ORAL, Species: RAT, Promoter: NONE USED

**Q.** Which results are given for `O=c1oc2c(O)c(O)cc3c(=O)oc4c(O)c(O)cc1c4c23`?
**A.** tumour outcome (control, treated, inhibition, significance) (Carcinogen: N-NITROSOBENZYLMETHYLAMINE, 1.2 UMOL/G IN DIET FOR DURATION OF STUDY BEGINNING 2 WK PRIOR TO CARCINOGEN TREATMENT (STUDY DURATION: 20 WK), Strain/Sex: F344/MALE, Target Tissue: Type of Lesion: ESOPHAGUS: TUMORS, Dose [Carcinogen]: 0.5 MG/KG IN 0.1 ML OF DMSO 1/WK FOR 18 WK): 15/15 (100%), 14/15 (93%), 7%, not significant; tumour outcome (control, treated, inhibition, significance) (Carcinogen: N-NITROSOBENZYLMETHYLAMINE, 1.2 UMOL/G IN DIET FOR DURATION OF STUDY BEGINNING 2 WK PRIOR TO CARCINOGEN TREATMENT (STUDY DURATION: 20 WK), Strain/Sex: F344/MALE, Target Tissue: Type of Lesion: ESOPHAGUS: TUMORS, Dose [Carcinogen]: 1.25 MG/KG IN 0.1 ML OF DMSO 1/WK FOR 18 WK): 15/15 (100%), 15/15 (100%), 0%, not significant; tumour outcome (control, treated, inhibition, significance) (Carcinogen: N-NITROSOBENZYLMETHYLAMINE, 1.2 UMOL/G IN DIET FOR DURATION OF STUDY BEGINNING 2 WK PRIOR TO CARCINOGEN TREATMENT (STUDY DURATION: 27 WK), Strain/Sex: F344/MALE, Target Tissue: Type of Lesion: ESOPHAGUS: TUMORS, Dose [Carcinogen]: 0.5 MG/KG IN 0.1 ML OF DMSO 1/WK FOR 18 WK): 15/15 (100%), 15/15 (100%), 0%, not significant; tumour outcome (control, treated, inhibition, significance) (Carcinogen: N-NITROSOBENZYLMETHYLAMINE, 1.2 UMOL/G IN DIET FOR DURATION OF STUDY BEGINNING 2 WK PRIOR TO CARCINOGEN TREATMENT (STUDY DURATION: 27 WK), Strain/Sex: F344/MALE, Target Tissue: Type of Lesion: ESOPHAGUS: TUMORS, Dose [Carcinogen]: 1.25 MG/KG IN 0.1 ML OF DMSO 1/WK FOR 18 WK): 15/15 (100%), 15/15 (100%), 0%, not significant; tumour outcome (control, treated, inhibition, significance) (Carcinogen: N-NITROSOBENZYLMETHYLAMINE, 4 G/KG IN DIET BEGINNING 2 WK PRIOR TO FIRST CARCINOGEN DOSE (STUDY DURATION: 20 WK), Strain/Sex: F-344/MALE, Target Tissue: Type of Lesion: ESOPHAGUS: TUMOR, Dose [Carcinogen]: 0.5, 1.25 MG/KG 1/WK FOR 18 WK): 15/15 (100%), 12/15 (80%), 20%, not calculated (low dose carcinogen); 15/15 (100; tumour outcome (control, treated, inhibition, significance) (Carcinogen: N-NITROSOBENZYLMETHYLAMINE, 4 G/KG IN DIET BEGINNING 2 WK PRIOR TO FIRST CARCINOGEN DOSE (STUDY DURATION: 27 WK), Strain/Sex: F-344/MALE, Target Tissue: Type of Lesion: ESOPHAGUS: TUMOR, Dose [Carcinogen]: 0.5, 1.25 MG/KG 1/WK FOR 18 WK): 15/15 (100%), 15/15 (100%), 0%, not calculated (low dose carcinogen); 15/15 (100; tumour outcome (control, treated, inhibition, significance) (Carcinogen: N-NITROSOBENZYLMETHYLAMINE, 12 UMOL/G IN DIET FOR DURATION OF STUDY BEGINNING 2 WK PRIOR TO CARCINOGEN TREATMENT (STUDY DURATION: 20 WK), Strain/Sex: F344/MALE, Target Tissue: Type of Lesion: ESOPHAGUS: TUMORS, Dose [Carcinogen]: 0.5 MG/KG IN 0.1 ML OF DMSO 1/WK FOR 18 WK): 15/15 (100%), 12/15 (80%), 20%, not significant; tumour outcome (control, treated, inhibition, significance) (Carcinogen: N-NITROSOBENZYLMETHYLAMINE, 12 UMOL/G IN DIET FOR DURATION OF STUDY BEGINNING 2 WK PRIOR TO CARCINOGEN TREATMENT (STUDY DURATION: 20 WK), Strain/Sex: F344/MALE, Target Tissue: Type of Lesion: ESOPHAGUS: TUMORS, Dose [Carcinogen]: 1.25 MG/KG IN 0.1 ML OF DMSO 1/WK FOR 18 WK): 15/15 (100%), 15/15 (100%), 0%, not significant; tumour outcome (control, treated, inhibition, significance) (Carcinogen: N-NITROSOBENZYLMETHYLAMINE, 12 UMOL/G IN DIET FOR DURATION OF STUDY BEGINNING 2 WK PRIOR TO CARCINOGEN TREATMENT (STUDY DURATION: 27 WK), Strain/Sex: F344/MALE, Target Tissue: Type of Lesion: ESOPHAGUS: TUMORS, Dose [Carcinogen]: 0.5 MG/KG IN 0.1 ML OF DMSO 1/WK FOR 18 WK): 15/15 (100%), 15/15 (100%), 0%, not significant; tumour outcome (control, treated, inhibition, significance) (Carcinogen: N-NITROSOBENZYLMETHYLAMINE, 12 UMOL/G IN DIET FOR DURATION OF STUDY BEGINNING 2 WK PRIOR TO CARCINOGEN TREATMENT (STUDY DURATION: 27 WK), Strain/Sex: F344/MALE, Target Tissue: Type of Lesion: ESOPHAGUS: TUMORS, Dose [Carcinogen]: 1.25 MG/KG IN 0.1 ML OF DMSO 1/WK FOR 18 WK): 15/15 (100%), 15/15 (100%), 0%, not significant; tumour outcome (control, treated, inhibition, significance) (Carcinogen: N-NITROSOMETHYLBENZYLAMINE, 400 PPM IN DIET FOR DURATION OF STUDY BEGINNING 1 WK POST CARCINOGEN TREATMENT (STUDY DURATION: 25 WK), Strain/Sex: F344/MALE, Target Tissue: Type of Lesion: ESOPHAGUS: TUMOR, Dose [Carcinogen]: 1 MG/KG 3/WK FOR 5 WK): 15/15 (100%), 14/15 (93%), 7%, not significant; tumour outcome (control, treated, inhibition, significance) (Carcinogen: N-NITROSOMETHYLBENZYLAMINE, 4000 PPM IN DIET FOR DURATION OF STUDY BEGINNING 1 WK POST CARCINOGEN TREATMENT (STUDY DURATION: 25 WK), Strain/Sex: F344/MALE, Target Tissue: Type of Lesion: ESOPHAGUS: TUMOR, Dose [Carcinogen]: 1 MG/KG 3/WK FOR 5 WK): 15/15 (100%), 10/15 (67%), 33%, p<0.05
